According to ChEMBL document CHEMBL4507296 (2021):

Key:
[1] = target: Homeodomain-interacting protein kinase 2 (Homo sapiens) (UniProt Q9H2X6); conditions: Compound concentration 1000.0 nM
[2] = target: Mitogen-activated protein kinase kinase kinase 1 (Homo sapiens) (UniProt Q13233); conditions: Compound concentration 1000.0 nM
[3] = tested on: Phosphatidylinositol 4,5-bisphosphate 3-kinase catalytic subunit alpha isoform (Homo sapiens), P42336 [C420R]; conditions: Compound concentration 1000.0 nM
[4] = target: Non-receptor tyrosine-protein kinase TYK2 (Homo sapiens) (UniProt P29597); conditions: Compound concentration 1000.0 nM
[5] = target: Tyrosine-protein kinase Fer (Homo sapiens) (UniProt P16591); conditions: Compound concentration 1000.0 nM
[6] = target: Epithelial discoidin domain-containing receptor 1 (Homo sapiens) (UniProt Q08345); conditions: Compound concentration 1000.0 nM
[7] = target: Ribosomal protein S6 kinase alpha-5 (Homo sapiens) (UniProt O75582); conditions: Compound concentration 1000.0 nM
Chain of Ribosomal protein S6 kinase alpha-5 (Homo sapiens) (O75582 whole entry, looked up): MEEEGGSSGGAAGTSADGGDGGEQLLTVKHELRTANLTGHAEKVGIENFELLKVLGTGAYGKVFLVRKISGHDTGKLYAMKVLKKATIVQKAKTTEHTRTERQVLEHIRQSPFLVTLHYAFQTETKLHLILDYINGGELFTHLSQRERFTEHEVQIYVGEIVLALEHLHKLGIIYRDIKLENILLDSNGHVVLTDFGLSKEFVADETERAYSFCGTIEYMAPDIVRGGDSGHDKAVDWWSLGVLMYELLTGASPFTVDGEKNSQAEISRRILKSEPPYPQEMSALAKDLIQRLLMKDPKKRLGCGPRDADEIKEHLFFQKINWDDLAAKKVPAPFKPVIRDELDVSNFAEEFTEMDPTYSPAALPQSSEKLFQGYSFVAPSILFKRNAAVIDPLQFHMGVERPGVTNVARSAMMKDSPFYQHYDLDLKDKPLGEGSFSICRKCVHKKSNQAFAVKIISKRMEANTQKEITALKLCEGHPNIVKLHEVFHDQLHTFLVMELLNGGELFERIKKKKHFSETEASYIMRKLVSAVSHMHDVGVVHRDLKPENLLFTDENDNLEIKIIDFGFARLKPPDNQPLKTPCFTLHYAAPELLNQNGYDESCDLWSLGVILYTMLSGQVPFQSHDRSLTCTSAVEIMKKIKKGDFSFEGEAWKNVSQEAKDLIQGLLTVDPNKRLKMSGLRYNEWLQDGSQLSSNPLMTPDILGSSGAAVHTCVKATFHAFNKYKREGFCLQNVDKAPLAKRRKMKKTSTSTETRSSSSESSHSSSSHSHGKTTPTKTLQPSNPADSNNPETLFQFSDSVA

[8] = target: Activin receptor type-2A (Homo sapiens) (UniProt P27037); conditions: Compound concentration 1000.0 nM
[9] = target: Serine/threonine-protein kinase BRSK2 (Homo sapiens) (UniProt Q8IWQ3); conditions: Compound concentration 1000.0 nM
[10] = target: Serine/threonine-protein kinase NIM1 (Homo sapiens) (UniProt Q8IY84); conditions: Compound concentration 1000.0 nM
Chain of Serine/threonine-protein kinase NIM1 (Homo sapiens) (Q8IY84 whole entry): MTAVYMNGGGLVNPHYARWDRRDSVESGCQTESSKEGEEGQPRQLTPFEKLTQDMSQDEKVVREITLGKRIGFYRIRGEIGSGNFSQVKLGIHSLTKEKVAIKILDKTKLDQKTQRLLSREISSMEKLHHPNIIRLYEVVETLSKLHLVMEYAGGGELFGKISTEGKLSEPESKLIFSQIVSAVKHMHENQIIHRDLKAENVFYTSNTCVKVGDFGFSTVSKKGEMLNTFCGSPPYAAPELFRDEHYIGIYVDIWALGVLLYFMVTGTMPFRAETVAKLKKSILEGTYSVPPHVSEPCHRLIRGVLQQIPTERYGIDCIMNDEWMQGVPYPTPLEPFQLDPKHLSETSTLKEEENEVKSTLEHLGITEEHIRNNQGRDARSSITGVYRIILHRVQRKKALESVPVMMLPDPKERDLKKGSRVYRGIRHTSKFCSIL

[11] = target: Cyclin-dependent kinase 5 (Homo sapiens) (UniProt Q00535); conditions: Compound concentration 1000.0 nM
Chain of Cyclin-dependent kinase 5 (Homo sapiens) (Q00535 whole entry, looked up): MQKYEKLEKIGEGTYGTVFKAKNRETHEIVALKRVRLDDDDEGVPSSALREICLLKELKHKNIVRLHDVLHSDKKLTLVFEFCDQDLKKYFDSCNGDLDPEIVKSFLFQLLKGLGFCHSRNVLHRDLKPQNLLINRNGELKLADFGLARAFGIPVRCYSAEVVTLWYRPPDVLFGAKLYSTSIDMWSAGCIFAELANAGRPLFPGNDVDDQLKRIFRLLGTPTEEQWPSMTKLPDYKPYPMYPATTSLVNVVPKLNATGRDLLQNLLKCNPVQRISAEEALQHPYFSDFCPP

[12] = target: Death-associated protein kinase 2 (Homo sapiens) (UniProt Q9UIK4); conditions: Compound concentration 1000.0 nM
[13] = target: Death-associated protein kinase 1 (Homo sapiens) (UniProt P53355); conditions: Compound concentration 1000.0 nM
[14] = target: Serine/threonine-protein kinase pim-3 (Homo sapiens) (UniProt Q86V86); conditions: Compound concentration 1000.0 nM
[15] = target: Serine/threonine-protein kinase 24 (Homo sapiens) (UniProt Q9Y6E0); conditions: Compound concentration 1000.0 nM
[16] = target: Cytoplasmic tyrosine-protein kinase BMX (Homo sapiens) (UniProt P51813); conditions: Compound concentration 1000.0 nM
Chain of Cytoplasmic tyrosine-protein kinase BMX (Homo sapiens) (P51813 whole entry): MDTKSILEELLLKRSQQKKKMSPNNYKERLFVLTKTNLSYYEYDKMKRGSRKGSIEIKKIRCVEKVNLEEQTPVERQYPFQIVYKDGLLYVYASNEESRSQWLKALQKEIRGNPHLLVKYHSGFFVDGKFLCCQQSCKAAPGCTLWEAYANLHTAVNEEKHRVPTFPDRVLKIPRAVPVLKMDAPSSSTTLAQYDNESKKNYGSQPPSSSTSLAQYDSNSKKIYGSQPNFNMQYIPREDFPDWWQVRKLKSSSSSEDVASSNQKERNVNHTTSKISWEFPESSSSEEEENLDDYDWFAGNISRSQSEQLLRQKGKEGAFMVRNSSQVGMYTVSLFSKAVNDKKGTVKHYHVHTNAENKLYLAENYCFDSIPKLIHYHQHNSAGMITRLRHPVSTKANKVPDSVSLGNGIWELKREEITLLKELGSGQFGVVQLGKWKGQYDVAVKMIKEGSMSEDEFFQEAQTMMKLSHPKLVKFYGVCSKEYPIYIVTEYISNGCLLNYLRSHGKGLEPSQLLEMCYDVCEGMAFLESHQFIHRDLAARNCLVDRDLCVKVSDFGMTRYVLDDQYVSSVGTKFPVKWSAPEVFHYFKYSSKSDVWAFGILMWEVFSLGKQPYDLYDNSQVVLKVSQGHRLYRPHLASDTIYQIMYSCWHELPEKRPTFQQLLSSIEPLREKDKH

[17] = target: G protein-coupled receptor kinase 3 (Homo sapiens) (UniProt P35626); conditions: Compound concentration 1000.0 nM
[18] = target: Tyrosine-protein kinase receptor UFO (Homo sapiens) (UniProt P30530); conditions: Compound concentration 1000.0 nM
[19] = target: Mitogen-activated protein kinase kinase kinase 20 (Homo sapiens) (UniProt Q9NYL2); conditions: Compound concentration 1000.0 nM
[20] = target: Serine/threonine-protein kinase TAO2 (Homo sapiens) (UniProt Q9UL54); conditions: Compound concentration 1000.0 nM
[21] = tested on: Mast/stem cell growth factor receptor Kit (Homo sapiens), P10721 [D816V]; conditions: Compound concentration 1000.0 nM
[22] = target: Mitogen-activated protein kinase 9 (Homo sapiens) (UniProt P45984); conditions: Compound concentration 1000.0 nM
[23] = target: Dual specificity protein kinase CLK2 (Homo sapiens) (UniProt P49760); conditions: Compound concentration 1000.0 nM
[24] = target: Interferon-induced, double-stranded RNA-activated protein kinase (Homo sapiens) (UniProt P19525); conditions: Compound concentration 1000.0 nM
[25] = target: Ribosomal protein S6 kinase alpha-3 (Homo sapiens) (UniProt P51812); conditions: Compound concentration 1000.0 nM
Chain of Ribosomal protein S6 kinase alpha-3 (Homo sapiens) (P51812 whole entry): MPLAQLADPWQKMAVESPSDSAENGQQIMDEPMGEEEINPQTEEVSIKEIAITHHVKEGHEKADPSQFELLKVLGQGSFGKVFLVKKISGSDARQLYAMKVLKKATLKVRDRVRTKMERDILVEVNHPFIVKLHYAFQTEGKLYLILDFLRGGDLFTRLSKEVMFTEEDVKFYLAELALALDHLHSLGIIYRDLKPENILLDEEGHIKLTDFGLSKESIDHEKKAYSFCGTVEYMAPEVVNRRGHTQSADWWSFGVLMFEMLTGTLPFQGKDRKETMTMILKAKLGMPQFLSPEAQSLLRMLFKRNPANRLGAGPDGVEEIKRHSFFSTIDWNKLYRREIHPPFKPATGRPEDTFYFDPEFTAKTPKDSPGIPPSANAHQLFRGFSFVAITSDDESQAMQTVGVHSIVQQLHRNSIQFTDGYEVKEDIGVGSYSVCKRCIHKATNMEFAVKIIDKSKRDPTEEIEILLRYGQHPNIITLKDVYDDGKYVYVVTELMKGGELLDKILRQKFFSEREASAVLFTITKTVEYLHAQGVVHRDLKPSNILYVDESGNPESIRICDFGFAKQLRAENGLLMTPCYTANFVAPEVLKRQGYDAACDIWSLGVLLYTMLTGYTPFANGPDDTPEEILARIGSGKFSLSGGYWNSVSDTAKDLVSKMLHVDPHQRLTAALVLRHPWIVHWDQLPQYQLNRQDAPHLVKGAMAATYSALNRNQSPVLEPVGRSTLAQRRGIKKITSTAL

[26] = target: 5-hydroxytryptamine receptor 2B (Homo sapiens) (UniProt P41595); assay: Serotonin 5-HT2b (human) CEREP ligand profiling; conditions: Compound concentration 10.0 uM
[27] = target: Serine/threonine-protein kinase STK11 (Homo sapiens) (UniProt Q15831); conditions: Compound concentration 1000.0 nM
Chain of Serine/threonine-protein kinase STK11 (Homo sapiens) (Q15831 whole entry): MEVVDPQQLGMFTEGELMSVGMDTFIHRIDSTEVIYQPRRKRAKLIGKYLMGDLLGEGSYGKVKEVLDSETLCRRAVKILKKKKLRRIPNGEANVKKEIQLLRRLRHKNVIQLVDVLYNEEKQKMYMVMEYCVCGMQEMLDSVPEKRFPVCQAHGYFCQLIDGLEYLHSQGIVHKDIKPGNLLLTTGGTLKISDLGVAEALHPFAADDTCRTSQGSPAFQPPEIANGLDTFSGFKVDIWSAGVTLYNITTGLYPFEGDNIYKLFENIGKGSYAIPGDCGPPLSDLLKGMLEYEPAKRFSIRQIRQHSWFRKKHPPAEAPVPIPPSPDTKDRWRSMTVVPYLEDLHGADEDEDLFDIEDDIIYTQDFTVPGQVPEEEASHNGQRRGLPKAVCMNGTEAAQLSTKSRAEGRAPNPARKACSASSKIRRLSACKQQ

[28] = tested on: Receptor-type tyrosine-protein kinase FLT3 (Homo sapiens), P36888 [K663Q]; conditions: Compound concentration 1000.0 nM
[29] = target: Proto-oncogene tyrosine-protein kinase receptor Ret (Homo sapiens) (UniProt P07949); conditions: Compound concentration 1000.0 nM
[30] = target: Voltage-gated sodium channel (Na+ channel, site 2) (Rattus norvegicus, UniProt F1LQQ7+O08562+O88420+O88457+P04774+P04775+P08104+P15389+P15390+Q62968); assay: Na+ channel (site 2) (rat) CEREP ligand profiling; type: protein assay; conditions: compound concentration 10 uM
[31] = target: Serine/threonine-protein kinase Sgk2 (Homo sapiens) (UniProt Q9HBY8); conditions: Compound concentration 1000.0 nM
[32] = target: Dual specificity mitogen-activated protein kinase kinase 1 (Homo sapiens) (UniProt Q02750); conditions: Compound concentration 1000.0 nM
[33] = target: Casein kinase I isoform delta (Homo sapiens) (UniProt P48730); conditions: Compound concentration 1000.0 nM
[34] = target: Phosphatidylinositol 4,5-bisphosphate 3-kinase catalytic subunit delta isoform (Homo sapiens) (UniProt O00329); conditions: Compound concentration 1000.0 nM
[35] = target: Dual specificity protein kinase TTK (Homo sapiens) (UniProt P33981); conditions: Compound concentration 1000.0 nM
[36] = target: Ribosomal protein S6 kinase alpha-5 (Homo sapiens) (UniProt O75582); conditions: Compound concentration 1000.0 nM; remark: listed apart in the source
[37] = target: Serine/threonine-protein kinase WNK4 (Homo sapiens) (UniProt Q96J92); conditions: Compound concentration 1000.0 nM
[38] = target: Alpha-1B adrenergic receptor (Homo sapiens) (UniProt P35368); conditions: Compound concentration 10.0 uM
[39] = tested on: Leucine-rich repeat serine/threonine-protein kinase 2 (Homo sapiens), Q5S007 [G2019S]; conditions: Compound concentration 1000.0 nM
[40] = target: RAF proto-oncogene serine/threonine-protein kinase (Homo sapiens) (UniProt P04049); conditions: Compound concentration 1000.0 nM
[41] = target: Leucine-rich repeat serine/threonine-protein kinase 2 (Homo sapiens) (UniProt Q5S007); conditions: Compound concentration 1000.0 nM
[42] = target: Misshapen-like kinase 1 (Homo sapiens) (UniProt Q8N4C8); conditions: Compound concentration 1000.0 nM
Chain of Misshapen-like kinase 1 (Homo sapiens) (Q8N4C8 whole entry, looked up): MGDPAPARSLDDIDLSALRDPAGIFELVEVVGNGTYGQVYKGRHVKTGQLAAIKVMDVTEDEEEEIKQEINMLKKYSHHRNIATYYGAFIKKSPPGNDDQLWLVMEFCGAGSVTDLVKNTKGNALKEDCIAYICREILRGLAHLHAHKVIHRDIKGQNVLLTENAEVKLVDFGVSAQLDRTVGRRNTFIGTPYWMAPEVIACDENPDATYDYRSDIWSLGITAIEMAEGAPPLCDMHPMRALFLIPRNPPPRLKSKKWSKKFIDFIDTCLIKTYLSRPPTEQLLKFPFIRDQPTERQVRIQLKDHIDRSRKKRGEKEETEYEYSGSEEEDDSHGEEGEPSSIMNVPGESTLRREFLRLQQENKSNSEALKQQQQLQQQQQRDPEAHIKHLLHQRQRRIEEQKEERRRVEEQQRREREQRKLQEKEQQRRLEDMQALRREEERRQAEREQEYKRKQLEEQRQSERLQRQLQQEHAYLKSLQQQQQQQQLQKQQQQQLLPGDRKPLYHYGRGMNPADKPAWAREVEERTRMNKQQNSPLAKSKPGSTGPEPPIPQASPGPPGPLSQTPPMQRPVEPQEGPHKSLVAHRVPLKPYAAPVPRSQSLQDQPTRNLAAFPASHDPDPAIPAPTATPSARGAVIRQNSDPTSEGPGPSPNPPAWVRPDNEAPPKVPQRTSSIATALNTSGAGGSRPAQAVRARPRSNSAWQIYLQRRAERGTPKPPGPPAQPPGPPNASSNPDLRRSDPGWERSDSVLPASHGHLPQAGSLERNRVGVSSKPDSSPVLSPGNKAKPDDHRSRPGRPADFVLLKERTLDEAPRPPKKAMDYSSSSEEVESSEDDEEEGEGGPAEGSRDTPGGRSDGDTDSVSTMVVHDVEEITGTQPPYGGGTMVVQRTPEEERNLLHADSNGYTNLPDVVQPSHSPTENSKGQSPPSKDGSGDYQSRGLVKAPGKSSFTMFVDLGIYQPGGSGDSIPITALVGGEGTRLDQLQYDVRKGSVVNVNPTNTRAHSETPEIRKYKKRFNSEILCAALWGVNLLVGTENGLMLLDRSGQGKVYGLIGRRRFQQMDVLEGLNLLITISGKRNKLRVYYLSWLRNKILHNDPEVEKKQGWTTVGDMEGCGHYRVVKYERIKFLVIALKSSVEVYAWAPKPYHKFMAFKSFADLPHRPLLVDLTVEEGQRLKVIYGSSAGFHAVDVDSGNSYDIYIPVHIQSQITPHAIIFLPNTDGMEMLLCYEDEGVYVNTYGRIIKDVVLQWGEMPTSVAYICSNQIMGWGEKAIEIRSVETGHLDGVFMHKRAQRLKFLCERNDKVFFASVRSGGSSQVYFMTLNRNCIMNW

[43] = target: Mitogen-activated protein kinase 12 (Homo sapiens) (UniProt P53778); conditions: Compound concentration 1000.0 nM
[44] = target: Serine/threonine-protein kinase WNK2 (Homo sapiens) (UniProt Q9Y3S1); conditions: Compound concentration 1000.0 nM

For C[C@H](c1ccc(F)cc1)N(Cc1cccc(C(=O)O)c1)C(=O)c1cnc2ccccc2c1 [PF-05105679], the residual activity [1] was 100%, the residual activity [2] was 100% and the residual activity [3] was 100%. The residual activity [4] was 92%, the residual activity [5] was 100% and the residual activity [6] was 100%. The residual activity [7] was 98%, the residual activity [8] was 100% and the residual activity [9] was 100%. It also gave a residual activity [10] of 79%, a residual activity [11] of 100% and a residual activity [12] of 88%. For the same compound, the residual activity [13] was 97%, the residual activity [14] was 100% and the residual activity [15] was 100%. The residual activity [16] was 99%, the residual activity [17] was 40% and the residual activity [18] was 100%. The residual activity [19] was 100%, the residual activity [20] was 100% and the residual activity [21] was 100%. The residual activity [22] was 81%, the residual activity [23] was 98% and the residual activity [24] was 100%. The residual activity [25] was 100%, the inhibition [26] was 26% and the residual activity [27] was 100%. For the same compound, the residual activity [28] was 100%, the residual activity [29] was 100% and the inhibition at 10 µM [30] was 32% (not active). For the same compound, the residual activity [31] was 93%, the residual activity [32] was 100% and the residual activity [33] was 92%. The residual activity [34] was 100%, the residual activity [35] was 100% and the residual activity [36] was 100%. It also gave a residual activity [37] of 91%, an inhibition [38] of -0.5% and a residual activity [39] of 100%. The residual activity [40] was 100%, the residual activity [41] was 100% and the residual activity [42] was 100%. For the same compound, the residual activity [43] was 65% and the residual activity [44] was 96%.
